Data taken from patent US20030225527A1, “Crystals and structures of MST3” (priority 2002, published 2003).
Structures can show the parent of a compound that is named as a salt.

Target: T1, MST3 kinase domain (Homo sapiens, UniProt Q9Y6E0)
T1 construct: 5 μg/ml MST3 kinase domain; Met-Ser-Leu (vector-encoded residues) (N); Glu-Gly-His6 (C); made in house; host or cells: E. coli
Assay: MST3 kinase assay (PK/LDH-coupled, loss of NADH at 340 nm)
Assay type: biochemical
Conditions: purified MST3 kinase domain 5 μg/ml, 10 μM ATP, 400 μM MST3 peptide, 1 mM MnCl2

T1 sequence (Q9Y6E0 36-286 limits assumed): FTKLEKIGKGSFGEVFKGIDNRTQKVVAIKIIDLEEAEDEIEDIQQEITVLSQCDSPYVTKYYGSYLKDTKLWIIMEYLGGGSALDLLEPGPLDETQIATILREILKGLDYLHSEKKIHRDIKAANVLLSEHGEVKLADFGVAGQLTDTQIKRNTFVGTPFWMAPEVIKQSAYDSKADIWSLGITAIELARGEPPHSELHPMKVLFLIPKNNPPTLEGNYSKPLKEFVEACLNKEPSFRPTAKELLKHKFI

| IC50 [µM] | Structure (SMILES) |
| --- | --- |
| 30 | O=S(=O)(NCCNCC=Cc1ccc(Br)cc1)c1cccc2cnccc12 [H89, N-[2-(p-Bromocinnamylamino)ethyl]-5-isoquinolinesulfonamide.2HCl] |
| 18 | O=S(=O)(c1cccc2c(Cl)cccc12)N1CCCNCC1 [ML-9, 1-(5-Chloronaphthalene-1-sulfonyl)-1H-hexahydro-1,4-diazepine.HCl] |
